Key:
[1] = molecular target: T1, RARα (Homo sapiens, UniProt P10276); assay: displacement assay to measure agonist binding affinity; conditions: read-out: Binding Affinities for RARα
T1 sequence (P10276 1-462): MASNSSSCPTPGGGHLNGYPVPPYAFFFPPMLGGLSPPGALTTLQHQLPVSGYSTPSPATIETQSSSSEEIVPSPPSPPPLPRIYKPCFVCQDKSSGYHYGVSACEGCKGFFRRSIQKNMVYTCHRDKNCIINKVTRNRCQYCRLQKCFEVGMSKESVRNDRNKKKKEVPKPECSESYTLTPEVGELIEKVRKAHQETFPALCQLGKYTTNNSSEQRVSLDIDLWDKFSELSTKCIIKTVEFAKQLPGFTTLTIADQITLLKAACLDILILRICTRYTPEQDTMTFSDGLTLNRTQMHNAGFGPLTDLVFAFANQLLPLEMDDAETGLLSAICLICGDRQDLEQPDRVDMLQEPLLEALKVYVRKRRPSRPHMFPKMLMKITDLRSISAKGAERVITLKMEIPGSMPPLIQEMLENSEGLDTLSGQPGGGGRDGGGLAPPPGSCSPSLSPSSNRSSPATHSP

[2] = molecular target: T2, RARβ (Homo sapiens, UniProt P10826); assay: as above; conditions: read-out: Binding Affinities for RARβ
T2 sequence (P10826 1-455): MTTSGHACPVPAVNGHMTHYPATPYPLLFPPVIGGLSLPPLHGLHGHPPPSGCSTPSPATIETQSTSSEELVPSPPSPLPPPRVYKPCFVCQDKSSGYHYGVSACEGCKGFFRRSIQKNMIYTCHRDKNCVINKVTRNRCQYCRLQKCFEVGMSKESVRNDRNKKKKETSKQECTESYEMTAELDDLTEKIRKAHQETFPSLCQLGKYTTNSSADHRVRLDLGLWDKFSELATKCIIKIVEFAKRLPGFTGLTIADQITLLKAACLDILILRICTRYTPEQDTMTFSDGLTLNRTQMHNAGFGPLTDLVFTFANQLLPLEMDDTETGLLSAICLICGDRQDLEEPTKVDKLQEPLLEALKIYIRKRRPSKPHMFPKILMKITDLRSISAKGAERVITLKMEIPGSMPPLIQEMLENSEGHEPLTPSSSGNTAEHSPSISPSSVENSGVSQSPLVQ

[3] = molecular target: T3, RARγ (Homo sapiens, UniProt P13631); assay: as above; conditions: read-out: Binding Affinities for RARγ
T3 sequence (P13631 1-454): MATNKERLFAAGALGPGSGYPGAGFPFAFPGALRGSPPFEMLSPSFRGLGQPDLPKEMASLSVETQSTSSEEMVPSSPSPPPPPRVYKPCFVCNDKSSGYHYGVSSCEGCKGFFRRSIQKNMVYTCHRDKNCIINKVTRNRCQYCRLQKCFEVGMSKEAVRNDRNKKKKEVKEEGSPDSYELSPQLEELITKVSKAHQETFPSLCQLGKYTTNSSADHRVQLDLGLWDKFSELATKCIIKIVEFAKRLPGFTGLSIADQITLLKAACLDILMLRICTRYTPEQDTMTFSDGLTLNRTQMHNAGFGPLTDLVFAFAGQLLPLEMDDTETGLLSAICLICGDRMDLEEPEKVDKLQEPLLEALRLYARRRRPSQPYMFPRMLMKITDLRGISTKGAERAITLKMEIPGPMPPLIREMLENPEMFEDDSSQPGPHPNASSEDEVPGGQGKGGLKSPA

[4] = system: Naïve T cells; assay: Th17 cell differentiation from Naïve T cells in vitro; format: cell-based, mouse
Experimental: (§1) To determine whether a RARα selective agonist could affect T cell differentiation, T cells were incubated with a RARα selective agonist to determine its effect on Foxp3 expression evaluated. Naive CD4^+ CD25^− FoxP3^− cells were purified from a Foxp3-GFP mouse using flow cytometry by sorting and isolating based upon a GFP^− phenotype. These cells were activated polyclonally with αCD3 in vitro in the presence of IL-2 and TGF-β. These cells were then cultured in media with various concentrations of compound 5183 (a RARα selective agonist) and the expression of FoxP3-GFP was analyzed by flow cytometry. The RARα selective agonist compound 5183 enhanced differentiation of immunosuppressive Treg cells and inhibited differentiation of inflammatory TH17 cells from Naïve T cells in vitro (Table 2).

[5] = system: experimental autoimmune encephalomyelitis (EAE); assay: experimental autoimmune encephalomyelitis (EAE) mouse model; format: in vivo, SJL mice
Experimental: To determine if RARα selective agonists reduce symptoms associated with an autoimmune disorder, the effects of a RARα selective agonist was evaluated in an experimental autoimmune encephalomyelitis (EAE) mouse model. EAE is an inflammatory disease of the central nervous system widely used as a model of multiple sclerosis in which Th17 cells are the principle mediators of the symptoms observed. […] In one set of experiments, the effects of prophylactic dosing were assessed. Mice were administered 1 mg/kg of compound 5183 intraperitoneally every other day starting day 1 after EAE induction. In a second set of experiments, the effects of therapeutic dosing were assessed. Mice were administered 2 mg/kg of compound 5183 intraperitoneally every other day starting day 7 after EAE induction. Clinical parameters of disease (loss of bodyweight and paralysis/paresis) were monitored on a daily basis.

[6] = system: CD4+ T cells; assay: in vivo FoxP3 expression in CD4+ T cells of blood and spleen; set-up: species or system mouse; conditions: mice, 100 μg every other day for 10 days
Experimental: To expand on the finding above, the in vivo effects of a RARα selective agonist on T cell differentiation was evaluated in a mouse model. Mice were treated 100 μg of compound 5183 (a RARα agonist) or an equivalent volume of DMSO (vehicle control) every other day for 10 days. Lymphocytes from the blood and spleen were then isolated and FoxP3 expression in CD4^+ T cells was assessed.

[7] = system: Naive CD4+ CD25− FoxP3− cells; assay: Treg cell differentiation (FoxP3-GFP expression by flow cytometry) in vitro; format: cell-based, mouse; conditions: αCD3, IL-2 and TGF-β
Experimental: Purified CD4+ CD25^− FoxP3^− cells were cultured in media with the specified concentration of each RAR agonist and analyzed by flow cytometry for FoxP3 (A), α4β7 (B), and CCR9 (C) expression in total CD4 T cells. FoxP3 results are representative of 3 independent experiments. CCR9 and α4β7 results are representative of multiple experiments.
It is important to determine which of the RAR (RARα, RARβ, RARγ) signaling pathways is important in the induction of Foxp3 expression. To determine this, naive CD4^+ CD25^− FoxP3^− cells were purified from a Foxp3-GFP mouse using flow cytometry by sorting and isolating based upon a GFP^− phenotype. These cells were activated polyclonally with αCD3 in vitro in the presence of IL-2 and TGF-β. To identify the RAR involved in RA-induced, the cultured cells were incubated with RAR selective agonists. The cultured cells were then score for the frequency of GFP+ (Foxp3+). With respect to the use of selective agonists, only the RARα agonist exerted significant impact on the expression of Foxp3 inducing nearly 100% Foxp3+ T cells, with enhancement on the expression of α4β7 and CCR9 (gut homing receptors) (FIG. 1). The RARγ and RARβ agonists were without effect.
as §1

[8] = system: RARα, RARβ, and RARγ; assay: transactivation assay to measure agonist activity; format: cell-based; conditions: FIG. 2
From the text: Other RARα selective agonists useful as a compound disclosed herein are described in, e.g., Teng, et al., Aryl or Heteroaryl Amides of Tetrahydronaphthalene, Chroman, Thiochroman and 1,2,3,4-Tetrahydroquinoline Carboxylic Acids, Having an Electron Withdrawing Substituent in the Aromatic Or Heteroaromatic Moiety, Having Retinoid-Like Biological Activity, U.S. Pat. No. 5,856,490; Teng, et al., Methods of Treatment with Compounds Having RARα Receptor Specific or Selective Activity, U.S. Pat. No. 5,965,606; and Nehma, et al., Treatment of Tumors with RARα Selective Retinoid Compounds in Combination with Other Anti-Tumor Agents, U.S. Pat. No. 6,387,950; each of which is incorporated by reference in its entirety. […] Assays by which a compound can be tested and established whether or not it is an RARα selective agonist, are known in the art and are described in numerous prior art publications and patents.

Kd [1]: 0.0047 µM | Kd [2]: > 10 µM | Kd [3]: > 10 µM
SMILES: CC1(C)CCC(C)(C)c2c1cc(C(=O)Nc1cc(F)c(C(=O)O)c(F)c1)c(O)c2Cl [Compound 5183]
Th17 cell Percent Differentiation (%) ([4]; 0.1 nM): 32% | Th17 cell Percent Differentiation (%) ([4]; 1 nM): 21% | Th17 cell Percent Differentiation (%) ([4]; 10 nM): 11% | Th17 cell Percent Differentiation (%) ([4]; 100 nM): 5% | symptoms associated with EAE (loss of bodyweight and paralysis/paresis) ([5]; prophylactic dosing: 1 mg/kg intraperitoneally every other day starting day 1 after EAE induction): reduced symptoms associated with EAE | symptoms associated with EAE (loss of bodyweight and paralysis/paresis) ([5]; therapeutic dosing: 2 mg/kg intraperitoneally every other day starting day 7 after EAE induction): reduced symptoms associated with EAE | Foxp3+ Expression (%) ([6]; Blood): 4.3% | Foxp3+ Expression (%) ([6]; Spleen): 25% | Treg cell Percent Differentiation (%) ([7]; 0.1 nM): 26% | Treg cell Percent Differentiation (%) ([7]; 1 nM): 55% | Treg cell Percent Differentiation (%) ([7]; 10 nM): 90% | activation of transcription from RARα, RARβ, and RARγ [8]: specifically activates RARα

Reference: patent US20120238623A1, “Inflammation and Autoimmune Disorder Treatment using RARa Selective Agonists” (priority 2011, published 2012)
